According to ChEMBL document CHEMBL5584201, “Amphiphilic tribasic galactosamines potentiate rifampicin in Gram-negative bacteria at low Mg++/Ca++concentrations” (Bioorg Med Chem Lett, 2024):
In brackets after ≈: the same amount, converted by molar mass. One block for each compound: values may come before it.

Tests used:
Acinetobacter baumannii [1] = test: Potentiation of rifampicin-induced antibacterial activity against Acinetobacter baumannii ATCC 17978 assessed as rifampicin MIC in low salt containing media by Mueller-Hinton broth based assay; assay type: functional
Escherichia coli [2] = test: Potentiation of rifampicin-induced antibacterial activity against Escherichia coli ATCC 25922 assessed as rifampicin MIC in low salt containing media by Mueller-Hinton broth based assay; assay type: functional
Escherichia coli [3] = test: Potentiation of rifampicin-induced antibacterial activity against Escherichia coli ATCC 25922 assessed as fold change in rifampicin MIC in low salt containing media by Mueller-Hinton broth based assay; assay type: functional
Pseudomonas aeruginosa [4] = test: Antibacterial activity against Pseudomonas aeruginosa PAO1 in low salt containing media by Mueller-Hinton broth based assay; assay type: functional
Escherichia coli [5] = test: Antibacterial activity against Escherichia coli ATCC 25922 in low salt containing media by Mueller-Hinton broth based assay; assay type: functional
Acinetobacter baumannii [6] = test: Potentiation of rifampicin-induced antibacterial activity against Acinetobacter baumannii ATCC 17978 assessed as fold change in rifampicin MIC in low salt containing media by Mueller-Hinton broth based assay; assay type: functional
Acinetobacter baumannii [7] = test: Antibacterial activity against Acinetobacter baumannii ATCC 17978 in low salt containing media by Mueller-Hinton broth based assay; assay type: functional
Pseudomonas aeruginosa [8] = test: Potentiation of rifampicin-induced antibacterial activity against Pseudomonas aeruginosa PAO1 assessed as fold change in rifampicin MIC in low salt containing media by Mueller-Hinton broth based assay; assay type: functional
Pseudomonas aeruginosa [9] = test: Potentiation of rifampicin-induced antibacterial activity against Pseudomonas aeruginosa PAO1 assessed as rifampicin MIC in low salt containing media by Mueller-Hinton broth based assay; assay type: functional
Escherichia coli [10] = test: Potentiation of rifampicin-induced antibacterial activity against Escherichia coli […] assessed as fold change in rifampicin MIC at 16 microg/ml in high concentration of Ca++ and Mg++ containing media by Mueller-Hinton broth based assay; assay type: functional; conditions: dose 16 µg/ml
Acinetobacter baumannii [11] = test: Potentiation of rifampicin-induced antibacterial activity against Acinetobacter baumannii ATCC 17978 assessed as rifampicin MIC at 16 microg/ml in high concentration of Ca++ and Mg++ containing media by Mueller-Hinton broth based assay; assay type: functional; conditions: dose 16 µg/ml
Escherichia coli [12] = test: Potentiation of rifampicin-induced antibacterial activity against Escherichia coli ATCC 25922 assessed as fold change in rifampicin MIC at 2 to 8 microg/ml in high concentration of Ca++ and Mg++ containing media by Mueller-Hinton broth based assay; assay type: functional; conditions: dose 2-8 µg/ml
Acinetobacter baumannii [13] = test: Potentiation of rifampicin-induced antibacterial activity against Acinetobacter baumannii 92247 assessed as rifampicin MIC at 16 microg/ml in high concentration of Ca++ and Mg++ containing media by Mueller-Hinton broth based assay; assay type: functional; conditions: dose 16 µg/ml
Escherichia coli [14] = test: Potentiation of rifampicin-induced antibacterial activity against Escherichia coli […] assessed as rifampicin MIC at 2 to 8 microg/ml in high concentration of Ca++ and Mg++ containing media by Mueller-Hinton broth based assay; assay type: functional; conditions: dose 2-8 µg/ml
Acinetobacter baumannii [15] = test: Potentiation of rifampicin-induced antibacterial activity against Acinetobacter baumannii ATCC 17978 assessed as fold change in rifampicin MIC at 16 microg/ml in high concentration of Ca++ and Mg++ containing media by Mueller-Hinton broth based assay; assay type: functional; conditions: dose 16 µg/ml
Acinetobacter baumannii [16] = test: Antibacterial activity against Acinetobacter baumannii ATCC 17978 in high concentration of Ca++ and Mg++ containing media by Mueller-Hinton broth based assay; assay type: functional
Escherichia coli [17] = test: Potentiation of rifampicin-induced antibacterial activity against Escherichia coli ATCC 25922 assessed as rifampicin MIC at 2 to 8 microg/ml in high concentration of Ca++ and Mg++ containing media by Mueller-Hinton broth based assay; assay type: functional; conditions: dose 2-8 µg/ml
Acinetobacter baumannii [18] = test: Antibacterial activity against Acinetobacter baumannii 92247 in high concentration of Ca++ and Mg++ containing media by Mueller-Hinton broth based assay; assay type: functional
[19] = Cytotoxicity against HEK293 cells assessed as cell viability at 9 uM relative to control; assay type: toxicity, cell-based; conditions: human, read-out: Activity
Acinetobacter baumannii [20] = test: Potentiation of rifampicin-induced antibacterial activity against Acinetobacter baumannii 92247 assessed as fold change in rifampicin MIC at 2 to 8 microg/ml in high concentration of Ca++ and Mg++ containing media by Mueller-Hinton broth based assay; assay type: functional; conditions: dose 2-8 µg/ml
Escherichia coli [21] = test: Potentiation of rifampicin-induced antibacterial activity against Escherichia coli ATCC 25922 assessed as rifampicin MIC at 16 microg/ml in high concentration of Ca++ and Mg++ containing media by Mueller-Hinton broth based assay; assay type: functional; conditions: dose 16 µg/ml
Acinetobacter baumannii [22] = test: Potentiation of rifampicin-induced antibacterial activity against Acinetobacter baumannii 92247 assessed as fold change in rifampicin MIC at 16 microg/ml in high concentration of Ca++ and Mg++ containing media by Mueller-Hinton broth based assay; assay type: functional; conditions: dose 16 µg/ml
Escherichia coli [23] = test: Antibacterial activity against Escherichia coli […] in high concentration of Ca++ and Mg++ containing media by Mueller-Hinton broth based assay; assay type: functional
Escherichia coli [24] = test: Potentiation of rifampicin-induced antibacterial activity against Escherichia coli ATCC 25922 assessed as fold change in rifampicin MIC at 16 microg/ml in high concentration of Ca++ and Mg++ containing media by Mueller-Hinton broth based assay; assay type: functional; conditions: dose 16 µg/ml
[25] = Cytotoxicity against human HepG2 cells assessed as cell viability at 9 uM relative to control; assay type: toxicity, cell-based; conditions: read-out: Activity
Escherichia coli [26] = test: Antibacterial activity against Escherichia coli ATCC 25922 in high concentration of Ca++ and Mg++ containing media by Mueller-Hinton broth based assay; assay type: functional
Escherichia coli [27] = test: Potentiation of rifampicin-induced antibacterial activity against Escherichia coli […] assessed as fold change in rifampicin MIC at 2 to 8 microg/ml in high concentration of Ca++ and Mg++ containing media by Mueller-Hinton broth based assay; assay type: functional; conditions: dose 2-8 µg/ml
Escherichia coli [28] = test: Potentiation of rifampicin-induced antibacterial activity against Escherichia coli […] assessed as rifampicin MIC at 16 microg/ml in high concentration of Ca++ and Mg++ containing media by Mueller-Hinton broth based assay; assay type: functional; conditions: dose 16 µg/ml
Acinetobacter baumannii [29] = test: Potentiation of rifampicin-induced antibacterial activity against Acinetobacter baumannii ATCC 17978 assessed as fold change in rifampicin MIC at 2 to 8 microg/ml in high concentration of Ca++ and Mg++ containing media by Mueller-Hinton broth based assay; assay type: functional; conditions: dose 2-8 µg/ml
Acinetobacter baumannii [30] = test: Potentiation of rifampicin-induced antibacterial activity against Acinetobacter baumannii ATCC 17978 assessed as rifampicin MIC at 2 to 8 microg/ml in high concentration of Ca++ and Mg++ containing media by Mueller-Hinton broth based assay; assay type: functional; conditions: dose 2-8 µg/ml
Acinetobacter baumannii [31] = test: Potentiation of rifampicin-induced antibacterial activity against Acinetobacter baumannii 92247 assessed as rifampicin MIC at 2 to 8 microg/ml in high concentration of Ca++ and Mg++ containing media by Mueller-Hinton broth based assay; assay type: functional; conditions: dose 2-8 µg/ml

- MIC (Acinetobacter baumannii [1]): 4 µg/mL
- MIC (Escherichia coli [2]): 1 µg/mL
- MIC (Pseudomonas aeruginosa [4]): 32 µg/mL
- MIC (Escherichia coli [5]): 8 µg/mL
- MIC (Acinetobacter baumannii [7]): 16 µg/mL
- MIC (Pseudomonas aeruginosa [9]): 8 µg/mL
Structure (SMILES): CCCCCCCCO[C@H]1[C@@H](N)[C@@H](CN=[N+]=[N-])O[C@@H](OCc2ccc3ccccc3c2)[C@@H]1N
- fold change (FC) (Escherichia coli [3]): 8
- fold change (FC) (Acinetobacter baumannii [6]): 128
- fold change (FC) (Pseudomonas aeruginosa [8]): 2

- MIC (Acinetobacter baumannii [1]): 16 µg/mL
- MIC (Escherichia coli [2]): 16 µg/mL
- MIC (Pseudomonas aeruginosa [4]): > 128 µg/mL
- MIC (Escherichia coli [5]): 64 µg/mL
- MIC (Acinetobacter baumannii [7]): 128 µg/mL
- MIC (Pseudomonas aeruginosa [9]): 16 µg/mL
Structure (SMILES): NC[C@H]1O[C@@H](OCCCc2ccccc2)[C@H](N)[C@@H](OCc2ccc3ccccc3c2)[C@H]1N
- fold change (FC) (Escherichia coli [3]): 32
- fold change (FC) (Acinetobacter baumannii [6]): 32
- fold change (FC) (Pseudomonas aeruginosa [8]): 2

- MIC (Acinetobacter baumannii [11]): 16 µg/mL
- MIC (Acinetobacter baumannii [13]): 16 µg/mL
- MIC (Escherichia coli [14]): 2 µg/mL
- MIC (Acinetobacter baumannii [16]): > 128 µg/mL
- MIC (Escherichia coli [17]): 2 µg/mL
- MIC (Acinetobacter baumannii [18]): 128 µg/mL (≈ 281 µM)
- MIC (Acinetobacter baumannii [1]): 4 µg/mL
- MIC (Escherichia coli [21]): 16 µg/mL
- MIC (Escherichia coli [23]): 128 µg/mL (≈ 281 µM)
- MIC (Escherichia coli [2]): 2 µg/mL
- MIC (Pseudomonas aeruginosa [4]): 32 µg/mL
- MIC (Escherichia coli [5]): 8 µg/mL
- MIC (Escherichia coli [26]): 128 µg/mL (≈ 281 µM)
- MIC (Escherichia coli [28]): 16 µg/mL
- MIC (Acinetobacter baumannii [30]): 4 µg/mL
- MIC (Acinetobacter baumannii [7]): 16 µg/mL
- MIC (Pseudomonas aeruginosa [9]): 8 µg/mL
- MIC (Acinetobacter baumannii [31]): 4 µg/mL
Structure (SMILES): CCCCCCCCO[C@H]1[C@@H](N)[C@@H](CN=[N+]=[N-])O[C@H](OCc2ccc3ccccc3c2)[C@@H]1N
- fold change (FC) (Escherichia coli [10]): 64
- fold change (FC) (Escherichia coli [12]): 1
- fold change (FC) (Acinetobacter baumannii [15]): 4
- viability at 9 µM [19]: 31.7%
- fold change (FC) (Acinetobacter baumannii [20]): 4
- fold change (FC) (Acinetobacter baumannii [22]): 64
- fold change (FC) (Escherichia coli [24]): 16
- fold change (FC) (Escherichia coli [3]): 64
- viability at 9 µM [25]: 46%
- fold change (FC) (Acinetobacter baumannii [6]): >=256
- fold change (FC) (Escherichia coli [27]): 1
- fold change (FC) (Acinetobacter baumannii [29]): 2
- fold change (FC) (Pseudomonas aeruginosa [8]): 8

- MIC (Acinetobacter baumannii [1]): 16 µg/mL
- MIC (Escherichia coli [2]): 16 µg/mL
- MIC (Pseudomonas aeruginosa [4]): > 128 µg/mL
- MIC (Escherichia coli [5]): 64 µg/mL
- MIC (Acinetobacter baumannii [7]): > 128 µg/mL
- MIC (Pseudomonas aeruginosa [9]): 16 µg/mL
Structure (SMILES): CCCCCCCCO[C@@H]1O[C@H](CN)[C@H](N)[C@H](OCc2ccccc2)[C@H]1N
- fold change (FC) (Escherichia coli [3]): 16
- fold change (FC) (Acinetobacter baumannii [6]): 16
- fold change (FC) (Pseudomonas aeruginosa [8]): 1
